According to ChEMBL document CHEMBL3045171, “Design and synthesis of some pyrazole derivatives of expected anti-inflammatory and analgesic activities” (Med Chem Res, 2012):

Experiments:
Rattus norvegicus [1] = test: Anti-inflammatory activity in Rattus norvegicus albino (rat) assessed as inhibition of carrageenan-induced paw edema at 25 mg/kg, ip pretreated 30 min prior to carrageenan administration measured 2 hr after carrageenan challenge (reference value: 0%); type: functional; conditions: route intraperitoneal
Rattus norvegicus [2] = test: Anti-inflammatory activity in Rattus norvegicus albino (rat) assessed as inhibition of carrageenan-induced paw edema at 25 mg/kg, ip pretreated 30 min prior to carrageenan administration measured 4 hr after carrageenan challenge (reference value: 0%); type: functional; conditions: route intraperitoneal
Rattus norvegicus [3] = test: Anti-inflammatory activity in Rattus norvegicus albino (rat) assessed as inhibition of carrageenan-induced paw edema at 25 mg/kg, ip pretreated 30 min prior to carrageenan administration measured 1 hr after carrageenan challenge (reference value: 0%); type: functional; conditions: route intraperitoneal
Mus musculus [4] = test: Analgesic activity in Mus musculus (mouse) assessed as inhibition of p-benzoquinone-induced writhing at 25 mg/kg, ip pretreated 30 min prior to carrageenan administration measured 2 hr after carrageenan challenge (reference value: 0%); type: functional; conditions: route intraperitoneal
Mus musculus [5] = test: Analgesic activity in Mus musculus (mouse) assessed as inhibition of p-benzoquinone-induced writhing at 25 mg/kg, ip pretreated 30 min prior to carrageenan administration measured 1 hr after carrageenan challenge (reference value: 0%); type: functional; conditions: route intraperitoneal
Mus musculus [6] = test: Analgesic activity in Mus musculus (mouse) assessed as inhibition of p-benzoquinone-induced writhing at 25 mg/kg, ip pretreated 30 min prior to carrageenan administration measured 4 hr after carrageenan challenge (reference value: 0%); type: functional; conditions: route intraperitoneal
Rattus norvegicus [7] = test: Anti-inflammatory activity in Rattus norvegicus albino (rat) assessed as inhibition of carrageenan-induced paw edema at 25 mg/kg, ip pretreated 30 min prior to carrageenan administration measured 3 hr after carrageenan challenge (reference value: 0%); type: functional; conditions: route intraperitoneal
[8] = Toxicity in ip dosed Mus musculus (mouse) after 24 hr; type: organism-based; conditions: in vivo
Mus musculus [9] = test: Analgesic activity in Mus musculus (mouse) assessed as inhibition of p-benzoquinone-induced writhing at 25 mg/kg, ip pretreated 30 min prior to carrageenan administration measured 3 hr after carrageenan challenge (reference value: 0%); type: functional; conditions: route intraperitoneal
Rattus norvegicus [10] = test: Gastrointestinal toxicity in Rattus norvegicus albino (rat) assessed as ulcer index at 25 mg/kg, po for 3 days measured 2 hr after last dose; type: organism-based; design: dose 25 mg/kg, route oral; conditions: in vivo

Compound | inhibition in vivo at 25 mg/kg (Rattus norvegicus [1]) | inhibition in vivo at 25 mg/kg (Rattus norvegicus [2]) | inhibition in vivo at 25 mg/kg (Rattus norvegicus [3]) | inhibition in vivo at 25 mg/kg (Mus musculus [4]) | inhibition in vivo at 25 mg/kg (Mus musculus [5]) | inhibition in vivo at 25 mg/kg (Mus musculus [6]) | inhibition in vivo at 25 mg/kg (Rattus norvegicus [7]) | LD50 at 24 h [8] | inhibition in vivo at 25 mg/kg (Mus musculus [9]) | UI (Rattus norvegicus [10])
C=C(C)C(=O)c1ccc(OC)cc1OC | 29.8% | 32.3% | 23.7% | 20% | 20% | 0% | 31.5% | 278 mg/kg | 0% | 15.24
C=C(C(=O)c1ccc(OC)cc1OC)c1ccccc1 | 1.43% | 2.9% | 0% |  |  |  | 1.92% | 232 mg/kg |  | 
COc1ccc(C2=NNCC2C)c(OC)c1 (stereo unspecified) | 44.5% | 44.4% | 40.4% | 60% | 80% | 20% | 45.1% | 292 mg/kg | 40% | 11.67
COc1ccc(C2=NNCC2c2ccccc2)c(OC)c1 (stereo unspecified) | 0% | 1.92% | 0% |  |  |  | 1.8% | 278 mg/kg |  | 
COc1ccc(C2=NN(C(=O)NS(=O)(=O)c3ccc(C)cc3)CC2C)c(OC)c1 (stereo unspecified) | 27.3% | 25.1% | 23.7% | 20% | 20% | 0% | 25.2% | 232 mg/kg | 0% | 
COc1ccc(C2=NN(C(=O)NS(=O)(=O)c3ccc(Cl)cc3)CC2C)c(OC)c1 (stereo unspecified) | 14.6% | 18.8% | 12.2% |  |  |  | 16.4% | 248 mg/kg |  | 
COc1ccc(C2=NN(C(=O)NS(=O)(=O)c3ccc(C)cc3)CC2c2ccccc2)c(OC)c1 (stereo unspecified) | 6.33% | 7.21% | 4.9% |  |  |  | 4.83% | 292 mg/kg |  | 
COc1ccc(C2=NN(C(=O)NS(=O)(=O)c3ccc(Cl)cc3)CC2c2ccccc2)c(OC)c1 (stereo unspecified) | 27.3% | 23.6% | 24.1% | 40% | 40% | 0% | 25.7% | 248 mg/kg | 20% | 
COc1ccc(C2=NN(C(=S)NC(=O)c3ccc(Cl)cc3)CC2C)c(OC)c1 (stereo unspecified) | 0% | 1.43% | 0% |  |  |  | 1.94% | 232 mg/kg |  | 
COc1ccc(C2=NN(C(=S)NC(=O)c3ccc(Cl)cc3)CC2c2ccccc2)c(OC)c1 (stereo unspecified) | 0% | 1.92% | 0% |  |  |  | 1.43% | 292 mg/kg |  | 
CCOC(=O)C(=O)C(C)C(=O)c1ccc(OC)cc1OC (stereo unspecified) | 27.2% | 24.6% | 23.7% |  |  |  | 26.1% | 278 mg/kg |  | 
CCOC(=O)C(=O)C(C(=O)c1ccc(OC)cc1OC)c1ccccc1 (stereo unspecified) | 20% | 21.2% | 15.1% |  |  |  | 20.8% | 278 mg/kg |  | 
CCOC(=O)c1nn(-c2ccccc2)c(-c2ccc(OC)cc2OC)c1C | 4.86% | 5.77% | 4.9% |  |  |  | 5.81% | 278 mg/kg |  | 
CCOC(=O)c1nn(-c2ccc(Cl)cc2)c(-c2ccc(OC)cc2OC)c1C | 1.43% | 2.38% | 0% | 40% | 40% | 0% | 2.22% | 248 mg/kg | 20% | 
CCOC(=O)c1nn(-c2ccccc2)c(-c2ccc(OC)cc2OC)c1-c1ccccc1 | 20.5% | 20.2% | 17.7% |  |  |  | 20.8% | 292 mg/kg |  | 
CCOC(=O)c1nn(-c2ccc(Cl)cc2)c(-c2ccc(OC)cc2OC)c1-c1ccccc1 | 12.7% | 15.4% | 6.89% |  |  |  | 15% | 278 mg/kg |  | 
COc1ccc(-c2c(C)c(C(=O)O)nn2-c2ccc(Cl)cc2)c(OC)c1 | 28.4% | 22.7% | 24.7% | 20% | 40% | 0% | 22.8% | 232 mg/kg | 20% | 
COc1ccc(-c2c(-c3ccccc3)c(C(=O)O)nn2-c2ccc(Cl)cc2)c(OC)c1 | 42% | 42.5% | 37% | 60% | 80% | 20% | 45.5% | 232 mg/kg | 40% | 11.56
COc1ccc(C(=O)Cc2ccccc2)c(OC)c1 | 11.2% | 15.9% | 5.91% |  |  |  | 15% | 278 mg/kg |  | 
Cc1ccc(-c2cc(C(F)(F)F)nn2-c2ccc(S(N)(=O)=O)cc2)cc1 [CELECOXIB] | 61.1% | 62.8% | 54.2% | 100% | 100% | 80% | 64% | 250 mg/kg | 80% | 8.4
CC(C)Cc1ccc(C(C)C(=O)O)cc1 (stereo unspecified) [IBUPROFEN] | 63.5% | 76.1% | 55.4% |  |  |  | 66.7% |  |  | 22.92
